Where “and” joins values, the source holds several entries; their conditions need not be identical. Equal values may be shown once. Toxic doses and inconclusive results are not listed. No stated cut-off is given here; in the data, active means T/C of 150% or more; inactive means T/C below 125%.
System: L1210 leukemia ip in BDF1 mice, survival T/C
Test: NCI In Vivo Anticancer Drug Screen. Data for tumor model L1210 Leukemia (intraperitoneal) in B6D2F1 (BDF1) mice
Conditions: endpoint: mean survival time, higher = longer survival
How it was run: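 Each compound was tested against a transplantable tumor grown in mice. The endpoint was survival, with treated animals benchmarked against vehicle controls as a simple ratio.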

[1] = dose: 50.0 mg/kg/injection, schedule: Q01DX009 (ip), vehicle: saline with Tween-80
[2] = dose: 100.0 mg/kg/injection, schedule: Q01DX009 (ip), vehicle: saline with Tween-80
[3] = dose: 200.0 mg/kg/injection, schedule: Q01DX009 (ip), vehicle: saline with Tween-80
[4] = dose: 400.0 mg/kg/injection, schedule: Q01DX009 (ip), vehicle: saline with Tween-80
[5] = dose: 50.0 mg/kg/injection, schedule: Q01DX001 (ip), vehicle: saline
[6] = dose: 100.0 mg/kg/injection, schedule: Q01DX001 (ip), vehicle: saline
[7] = dose: 200.0 mg/kg/injection, schedule: Q01DX001 (ip), vehicle: saline
[8] = dose: 400.0 mg/kg/injection, schedule: Q01DX001 (ip), vehicle: saline
[9] = dose: 100.0 mg/kg/injection, schedule: Q01DX009 (ip), vehicle: Klucel (hydroxypropylcellulose) (HPC)
[10] = dose: 100.0 mg/kg/injection, schedule: Q04DX003 (ip), vehicle: Klucel (hydroxypropylcellulose) (HPC)
[11] = dose: 200.0 mg/kg/injection, schedule: Q01DX009 (ip), vehicle: Klucel (hydroxypropylcellulose) (HPC)
[12] = dose: 200.0 mg/kg/injection, schedule: Q04DX003 (ip), vehicle: Klucel (hydroxypropylcellulose) (HPC)
[13] = dose: 400.0 mg/kg/injection, schedule: Q01DX009 (ip), vehicle: Klucel (hydroxypropylcellulose) (HPC)
[14] = dose: 400.0 mg/kg/injection, schedule: Q04DX003 (ip), vehicle: Klucel (hydroxypropylcellulose) (HPC)
[15] = dose: 100.0 mg/kg/injection, schedule: Q04DX003 (ip), vehicle: saline with Tween-80
[16] = dose: 200.0 mg/kg/injection, schedule: Q04DX003 (ip), vehicle: saline with Tween-80
[17] = dose: 400.0 mg/kg/injection, schedule: Q04DX003 (ip), vehicle: saline with Tween-80

Measured: T/C

CCCCOP(=O)(OCCCC)C(C)c1ccccc1 (centres undefined)
inactive: dose: 12.5 mg/kg/injection, schedule: Q04DX003 (ip), vehicle: saline with Tween-80 104 % of control | dose: 25.0 mg/kg/injection, schedule: Q01DX009 (ip), vehicle: saline with Tween-80 95 % of control and 100 % of control | dose: 25.0 mg/kg/injection, schedule: Q04DX002 (ip), vehicle: saline with Tween-80 95 % of control and 87 % of control | dose: 25.0 mg/kg/injection, schedule: Q04DX003 (ip), vehicle: saline with Tween-80 98 % of control | dose: 50.0 mg/kg/injection, schedule: Q01DX001 (ip), vehicle: saline with Tween-80 107 % of control | [1] 99 % of control and 104 % of control | dose: 50.0 mg/kg/injection, schedule: Q04DX002 (ip), vehicle: saline with Tween-80 103 % of control and 90 % of control | dose: 50.0 mg/kg/injection, schedule: Q04DX003 (ip), vehicle: saline with Tween-80 93 % of control and 106 % of control | dose: 100.0 mg/kg/injection, schedule: Q01DX001 (ip), vehicle: saline with Tween-80 107 % of control | dose: 100.0 mg/kg/injection, schedule: Q04DX002 (ip), vehicle: saline with Tween-80 94 % of control and 96 % of control and 108 % of control | dose: 200.0 mg/kg/injection, schedule: Q01DX001 (ip), vehicle: saline with Tween-80 94 % of control

C=C(c1ccccc1)C(C)C(=O)OCC (centres undefined)
inactive: [2] 96 % of control | [3] 101 % of control | [4] 98 % of control

CN(C)CCCNC(=S)Nc1ccc(Cl)cc1
inactive: [1] 108 % of control | [2] 108 % of control

COc1cccc(CC(=O)c2c[nH]c3ccccc23)c1
inactive: [5] 104 % of control | [6] 101 % of control | [7] 98 % of control | [8] 101 % of control

CCC1(C)CC=C2C(=CCC3C(C)(CO)CCCC23C)C1 (centres undefined)
inactive: dose: 50.0 mg/kg/injection, schedule: Q04DX002 (ip), vehicle: other 104 % of control | dose: 100.0 mg/kg/injection, schedule: Q04DX002 (ip), vehicle: other 93 % of control | dose: 200.0 mg/kg/injection, schedule: Q04DX002 (ip), vehicle: other 96 % of control

O=C(COc1ccc2ccccc2c1)Nc1ccc[n+](Cc2ccc(S(=O)(=O)F)cc2)c1
inactive: dose: 100.0 mg/kg/injection, schedule: Q04DX003 (ip), vehicle: saline 106 % of control | dose: 200.0 mg/kg/injection, schedule: Q04DX003 (ip), vehicle: saline 90 % of control | dose: 400.0 mg/kg/injection, schedule: Q04DX003 (ip), vehicle: saline 94 % of control

Cc1nc2c(=O)[nH]n(C)c2nc1C
inactive: [2] 97 % of control | [3] 95 % of control | [4] 95 % of control

CCCCS(=O)(=O)c1ccc(OC)c(NC(C)=O)c1
inactive: dose: 75.0 mg/kg/injection, schedule: Q04DX003 (ip), vehicle: Klucel (hydroxypropylcellulose) (HPC) 103 % of control | dose: 100.0 mg/kg/injection, schedule: Q01DX001 (ip), vehicle: Klucel (hydroxypropylcellulose) (HPC) 98 % of control | dose: 150.0 mg/kg/injection, schedule: Q04DX003 (ip), vehicle: Klucel (hydroxypropylcellulose) (HPC) 96 % of control | dose: 200.0 mg/kg/injection, schedule: Q01DX001 (ip), vehicle: Klucel (hydroxypropylcellulose) (HPC) 107 % of control | dose: 300.0 mg/kg/injection, schedule: Q04DX003 (ip), vehicle: Klucel (hydroxypropylcellulose) (HPC) 107 % of control | dose: 400.0 mg/kg/injection, schedule: Q01DX001 (ip), vehicle: Klucel (hydroxypropylcellulose) (HPC) 100 % of control

COc1ccc(NC(=O)c2cccc(C(=O)Nc3ccc(OC)cc3)c2)cc1
inactive: [9] 88 % of control | [10] 93 % of control | [11] 97 % of control | [12] 88 % of control | [13] 97 % of control | [14] 93 % of control

CC(=O)[O][Sn]([c]1ccccc1)([c]1ccccc1)[c]1ccccc1
inactive: dose: 0.39 mg/kg/injection, schedule: Q01DX009 (ip), vehicle: saline with Tween-80 98 % of control | dose: 0.78 mg/kg/injection, schedule: Q01DX009 (ip), vehicle: saline with Tween-80 93 % of control | dose: 1.0 mg/kg/injection, schedule: Q01DX015 (ip), vehicle: saline 97 % of control | dose: 1.56 mg/kg/injection, schedule: Q01DX009 (ip), vehicle: saline with Tween-80 106 % of control | dose: 1.56 mg/kg/injection, schedule: Q04DX003 (ip), vehicle: saline 106 % of control | dose: 2.0 mg/kg/injection, schedule: Q01DX015 (ip), vehicle: saline 89 % of control | dose: 2.33 mg/kg/injection, schedule: Q01DX009 (ip), vehicle: saline with Tween-80 105 % of control | dose: 3.54 mg/kg/injection, schedule: Q01DX009 (ip), vehicle: saline with Tween-80 100 % of control

COc1ccc(CN2CCCN(Cc3ccc(OC)cc3OC)C2c2cccc(F)c2)c(OC)c1
inactive: [5] 89 % of control | [6] 89 % of control | [7] 100 % of control | [8] 91 % of control

COC1OC(COC(c2ccccc2)(c2ccccc2)c2ccccc2)C2OC12 (centres undefined)
inactive: [6] 94 % of control | [7] 103 % of control | [8] 97 % of control

c1ccc(-c2cc(-c3ccccc3)c3c([o+]2)CCCCCCCCCCCC3)cc1
inactive: [1] 108 % of control | [2] 108 % of control | [3] 97 % of control

CC(C)CC(NC(=O)CNC(=O)OCc1ccccc1)C(=O)O (centres undefined)
inactive: [15] 101 % of control | [16] 97 % of control | [17] 91 % of control

COc1ccc(Cl)cc1NC(=O)c1cccc([N+](=O)[O-])c1
inactive: [9] 98 % of control | [11] 98 % of control | [13] 102 % of control

CC(Oc1ccc(Br)cc1Br)C(=O)O (centres undefined)
inactive: [15] 93 % of control | [16] 93 % of control | [17] 95 % of control

N#CC(C(=O)O)C1(C(C#N)C(=O)O)CCN(Cc2ccccc2)CC1 (centres undefined)
inactive: dose: 75.0 mg/kg/injection, schedule: Q01DX001 (ip), vehicle: carboxymethylcellulose (CMC) 96 % of control | dose: 150.0 mg/kg/injection, schedule: Q01DX001 (ip), vehicle: carboxymethylcellulose (CMC) 100 % of control | dose: 300.0 mg/kg/injection, schedule: Q01DX001 (ip), vehicle: carboxymethylcellulose (CMC) 102 % of control

CC(NC(=O)NCCCl)c1cccc([N+](=O)[O-])c1 (centres undefined)
inactive: dose: 100.0 mg/kg/injection, schedule: Q04DX002 (ip), vehicle: Klucel (hydroxypropylcellulose) (HPC) 94 % of control | dose: 200.0 mg/kg/injection, schedule: Q04DX002 (ip), vehicle: Klucel (hydroxypropylcellulose) (HPC) 105 % of control | dose: 400.0 mg/kg/injection, schedule: Q04DX002 (ip), vehicle: Klucel (hydroxypropylcellulose) (HPC) 119 % of control

O=c1[nH]c(C(F)(F)F)nc2[nH]ncc12
inactive: dose: 29.0 mg/kg/injection, schedule: Q01DX Z (ip), vehicle: methylcellulose (MC) 102 % of control | dose: 45.0 mg/kg/injection, schedule: Q01DX Z (ip), vehicle: methylcellulose (MC) 106 % of control | dose: 67.0 mg/kg/injection, schedule: Q01DX Z (ip), vehicle: methylcellulose (MC) 108 % of control | dose: 100.0 mg/kg/injection, schedule: Q01DX Z (ip), vehicle: methylcellulose (MC) 93 % of control

Cc1ccccc1C1(O)c2ccccc2-c2ccccc21
inactive: [15] 98 % of control | [16] 96 % of control | [17] 96 % of control

CC(=O)c1c(C)c(C)cc(C)c1C
inactive: [9] 110 % of control | [10] 96 % of control | [11] 97 % of control | [12] 103 % of control | [13] 111 % of control | [14] 103 % of control

CCN(CCCl)CCCNCc1c2ccccc2c(C)c2ccccc12
inactive: dose: 5.0 mg/kg/injection, schedule: Q01DX005 (ip), vehicle: saline 116 % of control

COc1ccc2c(C)cc(C)nc2n1
inactive: dose: 75.0 mg/kg/injection, schedule: Q04DX002 (ip), vehicle: saline 104 % of control | dose: 150.0 mg/kg/injection, schedule: Q04DX002 (ip), vehicle: saline 112 % of control | dose: 300.0 mg/kg/injection, schedule: Q04DX002 (ip), vehicle: saline 108 % of control

O=C(NC1CCCC1O)c1ccccc1 (centres undefined)
inactive: [1] 95 % of control | [2] 95 % of control | [3] 98 % of control

— PubChem BioAssay AID248 (DTP/NCI, 2004)
